Measured values published in PMC9037752, “A Novel Angiotensin I-Converting Enzyme Inhibitory Peptide Derived From Goat Milk Casein Hydrolysate Modulates Angiotensin II-Stimulated Effects on Vascular Smooth Muscle Cells” (Frontiers in Nutrition, 2022).
Ends that are not written are not given here.

Columns and labels:
[1] = target: T1, Angiotensin Converting Enzyme from rabbit lung (Oryctolagus cuniculus, UniProt P12822); test: ACE-inhibitory activity assay (RP-HPLC, HHL substrate); format: biochemical; details: HHL 6.5 mM, ACE 0.2 U, 37°C, 60 min, pH 8.3; HA at 228 nm by RP-HPLC; mean ± SD; sample concentration not given
T1 construct: Angiotensin Converting Enzyme from rabbit lung; purchased Sigma-Aldrich; host or cells: rabbit lung tissue
T1 sequence (P12822 34-1310): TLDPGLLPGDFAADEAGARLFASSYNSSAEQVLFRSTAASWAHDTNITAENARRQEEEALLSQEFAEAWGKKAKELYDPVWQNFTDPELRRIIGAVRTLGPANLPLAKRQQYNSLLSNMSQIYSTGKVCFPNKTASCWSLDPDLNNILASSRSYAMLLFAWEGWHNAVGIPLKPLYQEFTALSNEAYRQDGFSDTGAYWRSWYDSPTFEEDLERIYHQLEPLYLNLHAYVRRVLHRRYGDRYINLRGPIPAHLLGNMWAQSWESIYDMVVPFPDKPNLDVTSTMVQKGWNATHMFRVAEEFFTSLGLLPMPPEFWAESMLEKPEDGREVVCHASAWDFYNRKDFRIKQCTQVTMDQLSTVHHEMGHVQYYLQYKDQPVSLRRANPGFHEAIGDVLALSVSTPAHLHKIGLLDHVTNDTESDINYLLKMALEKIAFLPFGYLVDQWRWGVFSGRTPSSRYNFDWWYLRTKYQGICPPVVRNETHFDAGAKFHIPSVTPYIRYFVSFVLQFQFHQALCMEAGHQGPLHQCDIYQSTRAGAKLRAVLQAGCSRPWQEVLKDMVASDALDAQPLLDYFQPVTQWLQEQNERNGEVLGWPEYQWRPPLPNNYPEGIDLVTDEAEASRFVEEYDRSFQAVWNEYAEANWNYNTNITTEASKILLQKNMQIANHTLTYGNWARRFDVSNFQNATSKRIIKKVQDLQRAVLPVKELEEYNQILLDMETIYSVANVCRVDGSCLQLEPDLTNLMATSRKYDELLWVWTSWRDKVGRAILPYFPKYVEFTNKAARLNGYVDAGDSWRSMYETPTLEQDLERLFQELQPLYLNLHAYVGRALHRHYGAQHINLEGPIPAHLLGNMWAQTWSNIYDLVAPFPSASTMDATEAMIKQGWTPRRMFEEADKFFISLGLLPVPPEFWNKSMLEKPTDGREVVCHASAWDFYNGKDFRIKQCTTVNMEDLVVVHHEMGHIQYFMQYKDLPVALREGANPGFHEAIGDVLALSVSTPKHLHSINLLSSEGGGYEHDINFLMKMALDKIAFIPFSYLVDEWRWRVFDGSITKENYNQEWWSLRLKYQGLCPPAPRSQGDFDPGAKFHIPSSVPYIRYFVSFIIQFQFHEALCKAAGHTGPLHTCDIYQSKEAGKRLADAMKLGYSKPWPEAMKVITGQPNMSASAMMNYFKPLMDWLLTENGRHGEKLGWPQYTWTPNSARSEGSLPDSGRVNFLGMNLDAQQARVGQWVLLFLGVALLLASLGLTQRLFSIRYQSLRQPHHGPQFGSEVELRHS
Procedure: (§1) ACE inhibitory activity was measured using an RP-HPLC method with Hippuryl-His-Leu (HHL) as a substrate, which generated hippuric acid (HA) under enzymatic hydrolysis ([19]). The sample was dissolved in a borax-boric acid buffer containing 0.15 M NaCl (pH = 8.3). Firstly, add 10 μL ACE (0.2 U) to the sample tube and blank tube, respectively. At the same time, add 10 μL of sample to the sample tube, and add 10 μL of buffer and 80 μL of 1 M HCl to the blank tube, then pre-incubate at 37°C for 5 min. The reaction was initiated by adding 30 μL HHL (6.5 mM) and incubated for 60 min at the same temperature until 80 μL 1 M HCl was added to terminate the reaction.
ACE inhibitory activity (%) was confirmed by monitoring the formation of HA at 228 nm as detected by RP-HPLC on a C18 column (250 × 4.6 mm, 5 μm, Ecosil). The mobile phase was 25% acetonitrile and 75% water with 0.01% trifluoroacetic acid with a flow rate of 1 mL/min. The inhibition activity was calculated using the following equation:
Inhibition activity(%)=A-B-A0/A-A0×100%
Where, A = the HA peak area of the control; B = the HA peak area of the sample; A0 = the HA peak area of control with HCL before pre-incubated.
The inhibitory activity of the hydrolysates or collected fractions was expressed as percentage of ACE inhibition at a given protein concentration ([20]).

[2] = target: T1, Angiotensin Converting Enzyme from rabbit lung; test: Inhibitory kinetics study (Lineweaver-Burk plot); format: biochemical; details: different HHL and peptide concentrations
Procedure: Briefly, the enzyme activities were measured with different concentrations of the substrate (HHL) and the ACE inhibitory pattern in the presence of the inhibitor was determined with a Lineweaver–Burk plot.

[3] = target: T1, Angiotensin Converting Enzyme from rabbit lung; test: ACE inhibitory activity after in vitro gastrointestinal digest; format: biochemical
Procedure: as §1
In vitro digestion of the potent purified ACE inhibitory peptide was carried out according to the reported method, with some adjustments ([22], [23]). Peptide (0.4 mL, 1.5 mg mL^−1) was incubated with 2% (w/w) α-amylase, pepsin, or trypsin at 37°C.
In successive digestion tests, the peptide was first dissolved in buffer solution (pH 6.8) to 2 mg mL^−1 and incubated with α-amylase for 5 min. Then the pH was decreased to pH 2 with the addition of 1 M HCl. Subsequently, the gastric digestion was initiated by adding pepsin at an enzyme-substrate ratio of 2:100 (w/w). The reaction was stopped after 2 h by raising the pH to 8.0 with 1 M NaOH, and trypsin was added to the reactor to continue gastrointestinal digestion for 4 h. Last, the reaction mixture was heated for 15 min in boiling water to inactivate the enzyme.

[4] = tested on: A7r5 cells; test: Cell cytotoxicity test (CCK-8); format: cell-based, rat; details: 1–200 μg mL^−1, 24 h, CCK-8, P > 0.05
Procedure: The cytotoxic effects of FPQYLQYPY in cell culture were evaluated using the Cell Counting Kit-8. First, A7r5 cells were seeded at 1 × 10^4 cells per well into 96-well plates (Costar, Corning, NY, USA) and cultured in a 5% CO2 incubator at 37°C for 24 h. Then, the medium of each well was replaced by 100 μL of fresh medium with different concentrations of FPQYLQYPY (0, 1, 5, 10, 50, 100, or 200 μg mL^−1). After further incubation for 24 h, 10 μL CCK-8 solution was added to each well. Then, the plate was incubated for another 2 h.

[5] = tested on: A7r5 cells; test: Wound healing assay of Ang II-stimulated VSMCs; format: cell-based, rat; details: 100 μg mL^−1, Ang II 1 μM, 24 h, ImageJ
Procedure: Migration of A7r5 cells was evaluated using the wound healing assay ([25]). Three lines were drawn horizontally on the back of each hole on the 6-well plate with a marker. Cells in logarithmic growth phase were evenly seeded into 6-well plates with 2 × 10^5 cells per well, and grown in complete medium until the cells covered the bottom of the plate, then the medium was replaced by quiescing medium for overnight.
Afterwards, a sterile 200 μL spear head was used to quickly delimit at an average equal distance in the vertical direction according to the marking line, and washed with PBS to remove the floating cells. […] The migration distance was analyzed by ImageJ software.

[6] = tested on: A7r5 cells; test: Transwell cell migration assay of Ang II-stimulated VSMCs; format: cell-based, rat; details: 48 h, Ang II in lower chamber, crystal violet, absorbance 570 nm
Procedure: A7r5 cells were collected and suspended in DMEM (1% FBS), and then the density was adjusted to 2 × 10^5 cells ml^−1. In each group, cell suspensions with or without FPQYLQYPY were cultured in the upper chamber of a Transwell (8.0 μm, Corning, NY, USA) ([26]), and at the same time, the lower chamber was filled with or without Ang II for 48 h. […] After rinsing with PBS, a cotton swab was used to remove the upper unmigrated cells. The migratory cells were observed and photographed under an inverted microscope. Last, a 33% acetic acid solution was added to quantify the crystal violet, and the absorbance of samples was measured at a wavelength of 570 nm using a microplate reader.

[7] = tested on: A7r5 cells; test: Real time quantitative RT-PCR of differentially expressed genes; format: cell-based, rat; details: FPQYLQYPY-treated group vs Ang II-treated group
Procedure: Total RNA was extracted from A7r5 cells using TRIzol reagent, according to the manufacturer's specifications. The information of primer sequences is shown in Supplementary Table 1. RT reactions were performed in a GeneAmp® PCR System 9700 (Applied Biosystems, USA). Then, Real-time PCR was performed using the LightCycler® 480 II Real-time PCR Instrument (Roche, Swiss). The relative expression level was calculated using the 2^−ΔΔCt.

[8] = tested on: A7r5 cells; details: co-treatment 10, 50, 100 μg mL^−1 with Ang II 0.1 μM, 24 h, CCK-8
Procedure: The rat aortic vascular smooth muscle cell line A7r5, was purchased from Cell bank of Chinese Academy of Sciences (Shanghai, China). A7r5 cells between passage 8 and 20 were grown in DMEM supplemented with 10% FBS and antibiotics until they reached confluence. For experiments, the confluent cells were placed in a quiescing medium (DMEM + 1% FBS + antibiotics) ([24]) for 24 h, before treatment with different concentrations of [sequence] and Ang II for different time periods.
Cell proliferation was measured by the Cell Counting Kit-8. A7r5 cells were seeded at 5 × 10^3 cells per well into 96-well plates and grown in DMEM with 10% of FBS for 24 h, then the medium was replaced by quiescing medium overnight. The cells were co-treated with different concentrations of [sequence] (0, 10, 50, 100 μg mL^−1) and Ang II (0.1 μM) for 24 h. The absorbance of samples at a wavelength of 450 nm was measured using a microplate reader. The cell survival rate (%) was determined by the percentage of living cells in the test wells compared to the control wells.

[9] = tested on: ACE; details: peptides <3 kDa from fermented goat milk; cited from earlier work
Description: Among them, VLPVPQKAV ...

[10] = target: T2, Angiotensin Converting Enzyme from rabbit lung (rabbit) (UniProt P12822)
T2 sequence: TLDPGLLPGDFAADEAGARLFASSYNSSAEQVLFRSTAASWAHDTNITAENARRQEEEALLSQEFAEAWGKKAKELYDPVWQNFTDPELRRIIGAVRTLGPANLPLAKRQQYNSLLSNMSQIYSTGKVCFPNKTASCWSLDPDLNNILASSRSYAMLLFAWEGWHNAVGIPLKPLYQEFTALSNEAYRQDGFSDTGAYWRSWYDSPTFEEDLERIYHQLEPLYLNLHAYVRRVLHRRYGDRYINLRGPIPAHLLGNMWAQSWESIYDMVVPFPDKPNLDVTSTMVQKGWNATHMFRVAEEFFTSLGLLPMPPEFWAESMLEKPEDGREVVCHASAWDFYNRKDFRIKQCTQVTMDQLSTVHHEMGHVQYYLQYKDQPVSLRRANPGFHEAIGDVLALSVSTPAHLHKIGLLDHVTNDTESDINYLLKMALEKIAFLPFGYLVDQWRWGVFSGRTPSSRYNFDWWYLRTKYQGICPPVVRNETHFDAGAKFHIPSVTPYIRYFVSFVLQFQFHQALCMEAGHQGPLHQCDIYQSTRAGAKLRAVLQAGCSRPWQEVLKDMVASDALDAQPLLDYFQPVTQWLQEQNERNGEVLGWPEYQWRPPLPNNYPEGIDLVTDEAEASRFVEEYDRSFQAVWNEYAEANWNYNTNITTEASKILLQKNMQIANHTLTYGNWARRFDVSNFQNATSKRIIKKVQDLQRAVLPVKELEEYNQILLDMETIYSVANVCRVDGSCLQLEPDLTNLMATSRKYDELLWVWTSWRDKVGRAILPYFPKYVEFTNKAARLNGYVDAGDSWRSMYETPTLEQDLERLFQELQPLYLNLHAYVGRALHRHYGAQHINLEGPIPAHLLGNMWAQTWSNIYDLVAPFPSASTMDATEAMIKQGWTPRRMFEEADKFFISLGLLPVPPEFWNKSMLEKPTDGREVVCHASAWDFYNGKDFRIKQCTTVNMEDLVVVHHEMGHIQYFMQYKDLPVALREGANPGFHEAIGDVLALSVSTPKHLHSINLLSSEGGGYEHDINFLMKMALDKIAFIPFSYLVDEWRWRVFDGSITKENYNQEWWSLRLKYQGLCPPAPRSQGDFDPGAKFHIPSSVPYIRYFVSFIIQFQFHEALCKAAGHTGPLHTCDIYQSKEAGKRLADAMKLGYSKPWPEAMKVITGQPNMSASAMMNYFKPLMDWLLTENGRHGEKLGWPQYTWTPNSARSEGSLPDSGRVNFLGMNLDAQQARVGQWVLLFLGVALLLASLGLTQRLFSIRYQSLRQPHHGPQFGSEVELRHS

[11] = target: T2, Angiotensin Converting Enzyme from rabbit lung (rabbit); remark: listed apart in the source
[12] = before digestion (inactivated enzyme), mean ± SD

Molecule: FPQYLQYPY [FPQYLQYPY, also synthesized]
- ACE inhibition rate [1]: 71.19 ± 0.71%
- Inhibition pattern against ACE [2]: non-competitive
- ACE inhibitory (%), oral digestion (α-Amylase), Digested ([3]; 2% (w/w) α-amylase, pH 6.8, 5 min, 37°C, mean ± SD): 57.95 ± 0.22%
- ACE inhibitory (%), gastric digestion (Pepsin), Original [3, 12]: 54.12 ± 1.56%
- ACE inhibitory (%), intestinal digestion (Trypsin), Original [3, 12]: 49.86 ± 1.68%
- ACE inhibitory (%), oral digestion (α-Amylase), Original [3, 12]: 53.47 ± 7.32%
- ACE inhibitory (%), gastric digestion (Pepsin), Digested ([3]; pepsin 2:100 (w/w), pH 2, 2 h, 37°C, mean ± SD): 56.41 ± 1.91%
- ACE inhibitory (%), intestinal digestion (Trypsin), Digested ([3]; trypsin 2% (w/w), pH 8.0, 4 h, 37°C, mean ± SD): 45.76 ± 0.42%
- Change of ACE inhibitory activity after incubation with the digestive enzymes ([3]; α-amylase, pepsin, trypsin, 37°C, read-out ACE inhibition): no significant difference
- Cytotoxic effect on A7r5 cells [4]: no obvious cytotoxic effect
- Distance of the wound healing area (migration) [5]: restore the distance of the wound healing area to the level of the control group
- Cell migration in Transwell experiment [6]: the decrease in the level of cell migration was noteworthy
- Cox5b mRNA expression [7]: downregulated
- Efna4 mRNA expression [7]: downregulated
- Igf1r mRNA expression [7]: downregulated
- Itga3 mRNA expression [7]: downregulated
- Myl4 mRNA expression [7]: upregulated
- Plcb3 mRNA expression [7]: downregulated
- Shc4 mRNA expression [7]: upregulated
- Taok3 mRNA expression [7]: downregulated
- Tgfb1 mRNA expression [7]: upregulated
- Proliferation of Ang II-stimulated VSMCs [8]: significantly decreased the percentage of proliferating cells

Molecule: VLPVPQKAVPQ
- ACE-inhibitory activity [9]: good ACE-inhibitory activity

Molecule: VLPVPQKVVPQ
- ACE-inhibitory activity [9]: good ACE-inhibitory activity

Molecule: FPQYLQYPY [ACE-inhibitory peptide Phe-Pro-Gln-Tyr-Leu-Gln-Tyr-Pro-Tyr (…)]
- ACE inhibitory (%), undigested peptide ('Original') of the gastric digestion step (pepsin) [10]: 54.1%
- ACE inhibitory (%), undigested peptide ('Original') of the intestinal digestion step (trypsin) [10]: 49.9%
- ACE inhibitory (%), undigested peptide ('Original') of the oral digestion step (α-amylase) [10]: 53.5%
- ACE-inhibitory ability (%) of the purified fraction F3 (HHL substrate, hippuric acid by RP-HPLC; concentration not given) [11]: 71.2%
